This note sets out measurements from ChEMBL document CHEMBL1201862, “PubChem BioAssay data set” (2004).

The target of test [1] is T1, Apoptotic protease-activating factor 1 (Homo sapiens, UniProt O14727).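 Further: caspase-3 cleavage of fluorogenic Rh110 DEVD substrate downstream of apoptosome activation.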
T1 sequence (O14727 whole entry): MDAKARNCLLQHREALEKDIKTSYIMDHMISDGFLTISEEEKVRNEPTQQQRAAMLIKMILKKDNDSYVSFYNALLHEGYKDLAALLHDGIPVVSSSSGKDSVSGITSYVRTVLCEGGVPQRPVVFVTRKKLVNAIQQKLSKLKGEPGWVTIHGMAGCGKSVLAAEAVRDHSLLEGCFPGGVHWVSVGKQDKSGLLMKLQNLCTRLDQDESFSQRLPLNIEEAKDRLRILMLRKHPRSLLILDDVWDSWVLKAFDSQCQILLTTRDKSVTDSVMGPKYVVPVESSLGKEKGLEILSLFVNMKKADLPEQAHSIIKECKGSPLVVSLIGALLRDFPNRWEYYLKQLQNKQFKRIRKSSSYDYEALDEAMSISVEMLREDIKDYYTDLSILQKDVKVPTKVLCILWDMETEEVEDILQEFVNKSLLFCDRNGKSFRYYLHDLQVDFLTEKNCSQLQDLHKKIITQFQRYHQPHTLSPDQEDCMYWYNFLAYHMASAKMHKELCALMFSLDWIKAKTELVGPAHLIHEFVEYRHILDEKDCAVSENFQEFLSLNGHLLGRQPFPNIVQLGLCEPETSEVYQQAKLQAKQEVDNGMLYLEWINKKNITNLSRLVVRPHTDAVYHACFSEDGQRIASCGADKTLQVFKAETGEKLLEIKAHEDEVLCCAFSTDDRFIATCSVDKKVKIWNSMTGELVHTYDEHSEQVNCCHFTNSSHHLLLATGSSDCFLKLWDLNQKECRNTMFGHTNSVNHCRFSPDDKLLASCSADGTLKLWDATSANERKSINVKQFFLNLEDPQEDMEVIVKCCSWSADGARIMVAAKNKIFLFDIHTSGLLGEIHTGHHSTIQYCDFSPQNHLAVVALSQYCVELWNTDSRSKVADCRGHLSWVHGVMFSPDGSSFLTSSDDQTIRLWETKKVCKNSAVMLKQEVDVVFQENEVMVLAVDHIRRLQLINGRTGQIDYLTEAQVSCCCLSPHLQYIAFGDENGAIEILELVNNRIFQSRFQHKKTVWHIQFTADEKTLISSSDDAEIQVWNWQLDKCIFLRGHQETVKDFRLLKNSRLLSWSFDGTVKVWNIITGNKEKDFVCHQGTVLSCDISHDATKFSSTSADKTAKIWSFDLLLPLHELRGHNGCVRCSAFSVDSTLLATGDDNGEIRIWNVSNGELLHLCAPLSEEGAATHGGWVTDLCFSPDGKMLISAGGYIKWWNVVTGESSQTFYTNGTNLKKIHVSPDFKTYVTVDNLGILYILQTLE
In words: SAR analysis of small molecule Activators of Apaf-1 in a Fluorescent assay. As to conditions: read-out: EC50_Mean. Format: functional.

Test [2] concerns the target Adenosylmethionine-8-amino-7-oxononanoate aminotransferase (Mycobacterium tuberculosis, UniProt P9WQ81). In words: Mycobacterium tuberculosis BioA enzyme inhibitor Measured in Biochemical System Using Plate Reader - 2163-02_Inhibitor_Dose_CherryPick_Activity. Format: functional, Mycobacterium tuberculosis UT205.
The nature of test [3]: NIH-3T3 fibroblast cytotoxicity, dose response, cytotoxicity control, cell-based, fluorescence, Alamar Blue, secondary assay (AID 2327).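 Further: NIH-3T3 mouse fibroblasts cultured with fluconazole at 8 µg/mL.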 Format: functional. A general note: Resazurin is reduced to fluorescent resorufin, in cell work by metabolically active cells.
Test [4] is described as follows: fluconazole-exposed Candida albicans growth modulators – fluorescence, retest, confirmation (AID 2467). Format: functional, cell-based.
The target in a further test is T2, Caspase-3 (Homo sapiens, UniProt P42574).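 Further: Dose-response selectivity test against caspase-3 for candidate inhibitors of sentrin-specific proteases (SENPs).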
T2 sequence (P42574 whole entry): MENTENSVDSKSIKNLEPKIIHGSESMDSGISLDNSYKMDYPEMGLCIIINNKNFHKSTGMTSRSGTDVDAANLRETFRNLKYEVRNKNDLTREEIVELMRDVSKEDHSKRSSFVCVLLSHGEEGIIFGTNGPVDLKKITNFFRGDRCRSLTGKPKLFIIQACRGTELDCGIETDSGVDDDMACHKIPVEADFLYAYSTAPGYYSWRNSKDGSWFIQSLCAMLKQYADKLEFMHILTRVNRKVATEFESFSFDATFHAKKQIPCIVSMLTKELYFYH
Format: functional.

In test [5] the target is T3, Sentrin-specific protease 7 (Homo sapiens, UniProt Q9BQF6).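 Further: Luminescence-based dose-response confirmation of ultra-high-throughput screening hits, measuring inhibition of SENP7.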
T3 sequence (Q9BQF6 whole entry): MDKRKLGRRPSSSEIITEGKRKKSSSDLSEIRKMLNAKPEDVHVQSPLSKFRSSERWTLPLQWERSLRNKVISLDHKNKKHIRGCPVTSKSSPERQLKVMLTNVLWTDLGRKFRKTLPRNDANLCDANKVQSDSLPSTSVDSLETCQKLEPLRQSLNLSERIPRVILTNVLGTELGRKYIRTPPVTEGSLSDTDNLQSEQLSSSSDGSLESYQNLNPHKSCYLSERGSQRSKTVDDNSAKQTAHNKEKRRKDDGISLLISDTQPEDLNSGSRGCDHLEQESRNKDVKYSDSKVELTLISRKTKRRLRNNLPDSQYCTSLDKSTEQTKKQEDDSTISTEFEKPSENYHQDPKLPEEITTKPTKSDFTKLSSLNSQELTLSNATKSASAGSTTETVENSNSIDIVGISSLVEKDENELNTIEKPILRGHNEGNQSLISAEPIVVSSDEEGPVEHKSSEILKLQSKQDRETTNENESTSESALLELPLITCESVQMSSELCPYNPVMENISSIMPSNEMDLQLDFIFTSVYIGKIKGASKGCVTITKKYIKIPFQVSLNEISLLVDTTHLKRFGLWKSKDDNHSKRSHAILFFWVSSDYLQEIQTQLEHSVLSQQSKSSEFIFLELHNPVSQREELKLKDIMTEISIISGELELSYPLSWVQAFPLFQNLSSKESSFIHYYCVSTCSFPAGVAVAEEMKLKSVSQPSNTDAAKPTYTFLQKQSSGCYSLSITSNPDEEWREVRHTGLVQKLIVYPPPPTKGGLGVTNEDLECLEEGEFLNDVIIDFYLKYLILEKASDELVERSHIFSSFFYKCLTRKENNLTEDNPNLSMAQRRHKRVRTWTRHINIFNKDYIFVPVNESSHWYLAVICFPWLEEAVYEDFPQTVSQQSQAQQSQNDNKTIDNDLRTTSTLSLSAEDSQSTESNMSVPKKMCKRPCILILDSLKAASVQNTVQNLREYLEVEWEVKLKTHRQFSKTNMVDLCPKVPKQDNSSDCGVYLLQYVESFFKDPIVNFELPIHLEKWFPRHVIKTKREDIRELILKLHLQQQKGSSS
Format: functional.

Test [6] addresses T4, Sentrin-specific protease 6 (Homo sapiens, UniProt Q9GZR1).
T4 sequence (Q9GZR1 whole entry): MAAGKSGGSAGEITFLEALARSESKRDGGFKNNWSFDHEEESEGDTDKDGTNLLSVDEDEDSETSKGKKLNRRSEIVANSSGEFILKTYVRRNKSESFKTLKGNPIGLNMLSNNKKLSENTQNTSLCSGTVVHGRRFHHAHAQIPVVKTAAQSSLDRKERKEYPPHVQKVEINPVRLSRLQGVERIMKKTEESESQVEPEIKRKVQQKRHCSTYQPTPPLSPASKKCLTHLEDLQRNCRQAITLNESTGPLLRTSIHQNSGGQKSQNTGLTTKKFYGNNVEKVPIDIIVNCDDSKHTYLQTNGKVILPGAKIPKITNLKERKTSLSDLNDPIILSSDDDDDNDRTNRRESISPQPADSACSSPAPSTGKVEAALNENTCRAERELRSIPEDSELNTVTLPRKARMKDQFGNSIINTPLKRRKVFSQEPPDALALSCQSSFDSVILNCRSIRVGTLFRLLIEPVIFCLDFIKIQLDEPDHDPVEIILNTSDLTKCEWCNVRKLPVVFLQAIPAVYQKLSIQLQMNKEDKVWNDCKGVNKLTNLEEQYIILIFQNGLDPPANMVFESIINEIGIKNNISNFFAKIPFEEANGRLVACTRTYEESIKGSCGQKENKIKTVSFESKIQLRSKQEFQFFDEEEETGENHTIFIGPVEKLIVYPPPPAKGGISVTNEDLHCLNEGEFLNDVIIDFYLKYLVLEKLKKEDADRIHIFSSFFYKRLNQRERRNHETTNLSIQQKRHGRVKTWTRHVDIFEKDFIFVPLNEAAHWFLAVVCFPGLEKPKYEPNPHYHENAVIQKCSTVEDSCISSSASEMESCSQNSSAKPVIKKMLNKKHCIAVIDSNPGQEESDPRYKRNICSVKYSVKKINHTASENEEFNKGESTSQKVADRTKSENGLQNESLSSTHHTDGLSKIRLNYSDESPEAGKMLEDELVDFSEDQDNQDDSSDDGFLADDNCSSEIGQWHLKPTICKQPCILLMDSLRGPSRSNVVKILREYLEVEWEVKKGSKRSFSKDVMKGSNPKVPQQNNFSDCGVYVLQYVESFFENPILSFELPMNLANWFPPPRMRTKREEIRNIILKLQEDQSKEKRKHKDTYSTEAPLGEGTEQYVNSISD
It is filed as functional.

For test [7], the target named is T5, Sentrin-specific protease 8 (Homo sapiens, UniProt Q96LD8).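 Further: luminescence read-out of SENP8 inhibition, dose-response confirmation following an ultra-high-throughput screen.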
T5 sequence (Q96LD8 whole entry): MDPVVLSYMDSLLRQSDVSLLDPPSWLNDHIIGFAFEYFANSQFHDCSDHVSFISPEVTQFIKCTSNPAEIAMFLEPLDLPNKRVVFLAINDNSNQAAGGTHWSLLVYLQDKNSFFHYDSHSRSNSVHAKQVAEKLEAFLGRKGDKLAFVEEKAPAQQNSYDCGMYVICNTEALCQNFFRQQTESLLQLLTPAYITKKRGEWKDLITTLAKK
It is filed as functional.

Test [8] deals with T6, Polyadenylate-binding protein 1 (Homo sapiens, UniProt P11940). Description: MLLE binding blockers, Cy5 peptide tracer – biochemical, fluorescence polarization, Cy5-PAM2 peptide, secondary, miRNA deadenylation inhibitor project, dose response (AID 602260). Conditions: read-out: IC50_Mean. Format: functional. (In general: Polarisation of emitted light reports the rotation of a fluorescent probe.)

In test [9] the target is T6, Polyadenylate-binding protein 1. In words: MLLE domain peptide-binding blockers, IC50 – biochemical, fluorescence polarization, FITC-PAM2 peptide, dose response (AID 602259). Format: functional. Conditions: read-out: IC50_Mean.
Test [10] deals with Aryl hydrocarbon receptor (Homo sapiens, UniProt P35869). As to conditions: Potency.
For test [11], the target named is T7, Low molecular weight phosphotyrosine protein phosphatase (Homo sapiens, UniProt P24666).
T7 sequence (P24666 whole entry): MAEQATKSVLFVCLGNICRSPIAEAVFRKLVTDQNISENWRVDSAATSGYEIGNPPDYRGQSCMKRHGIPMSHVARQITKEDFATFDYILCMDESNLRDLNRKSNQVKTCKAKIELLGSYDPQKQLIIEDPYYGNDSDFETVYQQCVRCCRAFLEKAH
Format: functional. As to conditions: read-out: IC50_Mean.

The target of test [12] is T7, Low molecular weight phosphotyrosine protein phosphatase. Format: functional. Conditions: read-out: IC50_Mean. This is another data set of the same source.
The target in another test is Cytochrome P450 2C19 (Homo sapiens, UniProt P33261). In words: Cytochrome panel assay with activity outcomes. Panel member name: p450-cyp2c19 Compounds with AC50 equal or less than 10 uM are considered active. Format: functional. Conditions: read-out: AC50.
A further test has as its target Cytochrome P450 3A4 (Homo sapiens, UniProt P08684).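 Further: CYP3A4 tested as one member of a cytochrome P450 panel screen.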
For a further test, the target named is Cytochrome P450 2C9 (Homo sapiens, UniProt P11712).

Molecules are shown by their SMILES. Calls of active or inactive are those of the source.

T6 sequence (P11940 whole entry): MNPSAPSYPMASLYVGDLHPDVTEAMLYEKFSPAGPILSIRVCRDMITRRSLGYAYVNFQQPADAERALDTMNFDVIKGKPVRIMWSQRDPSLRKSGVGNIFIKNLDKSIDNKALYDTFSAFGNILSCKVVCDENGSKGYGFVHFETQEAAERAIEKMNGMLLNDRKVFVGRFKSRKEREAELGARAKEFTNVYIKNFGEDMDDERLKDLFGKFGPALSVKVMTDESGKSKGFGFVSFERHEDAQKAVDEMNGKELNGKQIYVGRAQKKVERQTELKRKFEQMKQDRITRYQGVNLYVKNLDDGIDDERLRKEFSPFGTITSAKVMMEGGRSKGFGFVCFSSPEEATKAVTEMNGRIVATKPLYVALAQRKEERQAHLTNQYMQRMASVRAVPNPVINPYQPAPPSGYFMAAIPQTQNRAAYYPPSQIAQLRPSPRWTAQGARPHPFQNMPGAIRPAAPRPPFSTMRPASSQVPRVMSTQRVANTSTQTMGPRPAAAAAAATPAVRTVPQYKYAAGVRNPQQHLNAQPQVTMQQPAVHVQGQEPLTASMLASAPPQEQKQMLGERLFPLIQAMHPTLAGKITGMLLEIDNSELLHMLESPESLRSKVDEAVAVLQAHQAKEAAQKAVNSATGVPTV
Chain of Adenosylmethionine-8-amino-7-oxononanoate aminotransferase (P9WQ81 whole entry): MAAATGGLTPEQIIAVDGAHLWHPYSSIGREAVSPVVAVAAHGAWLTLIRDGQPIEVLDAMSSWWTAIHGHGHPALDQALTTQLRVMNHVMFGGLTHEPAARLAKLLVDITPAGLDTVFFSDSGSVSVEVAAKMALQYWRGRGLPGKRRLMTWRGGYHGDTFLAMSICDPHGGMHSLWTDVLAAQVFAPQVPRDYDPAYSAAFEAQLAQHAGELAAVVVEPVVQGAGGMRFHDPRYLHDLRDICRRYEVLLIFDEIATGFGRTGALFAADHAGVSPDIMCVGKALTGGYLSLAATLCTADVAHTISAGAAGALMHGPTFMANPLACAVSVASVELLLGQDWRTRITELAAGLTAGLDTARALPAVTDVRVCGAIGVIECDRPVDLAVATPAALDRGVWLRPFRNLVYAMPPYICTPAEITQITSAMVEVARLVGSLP
Chain of Cytochrome P450 3A4 (P08684 whole entry): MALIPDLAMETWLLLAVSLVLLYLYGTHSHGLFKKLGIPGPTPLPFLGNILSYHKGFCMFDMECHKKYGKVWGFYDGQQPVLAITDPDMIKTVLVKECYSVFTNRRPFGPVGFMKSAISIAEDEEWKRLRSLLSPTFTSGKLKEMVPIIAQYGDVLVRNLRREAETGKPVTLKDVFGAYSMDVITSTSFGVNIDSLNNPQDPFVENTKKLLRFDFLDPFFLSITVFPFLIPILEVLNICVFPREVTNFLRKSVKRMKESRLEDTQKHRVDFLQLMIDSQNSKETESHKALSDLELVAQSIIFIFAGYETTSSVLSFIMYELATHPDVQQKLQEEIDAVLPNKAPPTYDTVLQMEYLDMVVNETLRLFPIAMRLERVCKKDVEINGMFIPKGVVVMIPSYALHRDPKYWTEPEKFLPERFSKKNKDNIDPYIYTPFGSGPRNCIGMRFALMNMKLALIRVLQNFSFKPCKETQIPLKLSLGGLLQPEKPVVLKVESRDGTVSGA
Chain of Cytochrome P450 2C19 (P33261 whole entry): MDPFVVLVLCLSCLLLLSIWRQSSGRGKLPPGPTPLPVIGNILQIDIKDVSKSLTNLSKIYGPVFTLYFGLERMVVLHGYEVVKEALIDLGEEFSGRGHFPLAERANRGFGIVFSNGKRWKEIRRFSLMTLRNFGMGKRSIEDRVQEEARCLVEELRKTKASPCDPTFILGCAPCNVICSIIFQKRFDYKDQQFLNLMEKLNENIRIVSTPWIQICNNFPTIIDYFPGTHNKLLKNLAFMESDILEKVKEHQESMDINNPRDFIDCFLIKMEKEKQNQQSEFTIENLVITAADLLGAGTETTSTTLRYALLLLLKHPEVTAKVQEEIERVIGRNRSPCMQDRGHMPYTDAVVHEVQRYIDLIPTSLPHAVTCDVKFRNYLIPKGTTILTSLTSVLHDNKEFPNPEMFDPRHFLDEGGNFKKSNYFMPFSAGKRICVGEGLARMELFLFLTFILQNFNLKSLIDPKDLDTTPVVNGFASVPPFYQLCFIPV
Chain of Aryl hydrocarbon receptor (P35869 whole entry): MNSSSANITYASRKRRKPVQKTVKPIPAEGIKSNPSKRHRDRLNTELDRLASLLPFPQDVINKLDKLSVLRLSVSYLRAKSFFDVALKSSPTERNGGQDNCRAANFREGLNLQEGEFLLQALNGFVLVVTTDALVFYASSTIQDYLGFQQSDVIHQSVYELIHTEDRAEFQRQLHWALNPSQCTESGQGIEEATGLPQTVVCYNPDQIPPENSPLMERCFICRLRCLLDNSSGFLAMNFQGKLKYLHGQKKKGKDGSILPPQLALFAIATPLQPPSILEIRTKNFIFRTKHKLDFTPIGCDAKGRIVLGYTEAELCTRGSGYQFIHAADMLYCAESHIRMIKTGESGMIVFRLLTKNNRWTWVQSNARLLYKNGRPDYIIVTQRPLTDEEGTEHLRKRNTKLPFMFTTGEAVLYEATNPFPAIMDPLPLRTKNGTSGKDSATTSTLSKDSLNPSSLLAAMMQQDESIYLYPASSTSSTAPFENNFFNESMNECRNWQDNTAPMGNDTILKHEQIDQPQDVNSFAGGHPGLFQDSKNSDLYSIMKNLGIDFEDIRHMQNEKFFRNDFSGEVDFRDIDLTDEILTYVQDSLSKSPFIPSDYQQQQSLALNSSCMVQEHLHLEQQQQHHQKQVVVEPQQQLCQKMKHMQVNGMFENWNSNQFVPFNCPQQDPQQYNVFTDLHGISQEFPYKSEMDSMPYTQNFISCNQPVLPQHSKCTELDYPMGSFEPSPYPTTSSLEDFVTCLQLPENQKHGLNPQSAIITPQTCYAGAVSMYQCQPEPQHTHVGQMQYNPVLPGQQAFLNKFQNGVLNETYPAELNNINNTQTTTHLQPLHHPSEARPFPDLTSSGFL
Chain of Cytochrome P450 2C9 (P11712 whole entry): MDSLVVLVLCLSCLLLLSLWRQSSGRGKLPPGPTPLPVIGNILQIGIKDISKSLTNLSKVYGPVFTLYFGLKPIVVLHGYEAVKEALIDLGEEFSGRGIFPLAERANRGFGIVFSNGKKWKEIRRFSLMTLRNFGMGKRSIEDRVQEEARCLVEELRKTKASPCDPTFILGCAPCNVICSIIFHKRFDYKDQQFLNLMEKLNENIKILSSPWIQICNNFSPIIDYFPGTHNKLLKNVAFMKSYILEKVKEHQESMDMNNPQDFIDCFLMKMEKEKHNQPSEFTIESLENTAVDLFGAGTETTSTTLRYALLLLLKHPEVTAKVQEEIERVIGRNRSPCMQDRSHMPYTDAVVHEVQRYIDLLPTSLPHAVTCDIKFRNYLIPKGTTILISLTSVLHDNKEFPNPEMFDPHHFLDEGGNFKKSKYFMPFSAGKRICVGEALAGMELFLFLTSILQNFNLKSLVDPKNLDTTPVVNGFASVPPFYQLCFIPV

Take `COc1ccc(C)cc1NC(=O)CCS(=O)(=O)c1ccc2c(c1)CC(=O)N2C`: the EC50 in [1] is > 100 µM (inactive).
A word on the AC50: it is the concentration giving half of the maximal activity seen. On to `CC(=O)c1ccc(C(=O)N2CCCC(CCC(=O)N(C)CCc3ccccn3)C2)s1` (centres undefined), for which the half-maximal activity concentration (AC50) in test [2] is 12.4 µM (active).
With `Cc1[nH]n(C(N)=S)c(=O)c1/N=N/c1ccc(S(=O)(=O)N2CCCCCC2)cc1`, the EC50 was > 160 µM (inactive) in test [3] and > 38 µM (not active) in test [4]. In addition, the IC50 on Caspase-3 is 12.9 µM (active); in test [5], 9.68 µM (active); in test [6] it was 15.5 µM (active); in [7] it was 2.52 µM (active); in test [8] it was > 66 µM (inactive); in test [9], > 66 µM (inactive).
As to `COP(=S)(OC)Oc1c(Cl)cc(C)cc1Cl` [TOLCOFOS-METHYL], the AC50 in test [10] is 79.4 µM (inconclusive).
Regarding `Cc1ccc(-c2nc(NCc3cccnc3)c3ccccc3n2)cc1`, the IC50 in [11] is 13.7 µM (active); in test [12], 8.04 µM (active).
Turning to `O=C(Oc1ccc(OC(=O)N2CCOCC2)cc1)c1ccccc1`, the IC50 was 14.8 µM (active) on Caspase-3, 14.2 µM (active) in [5], > 100 µM (inactive) in test [6] and > 100 µM (inactive) in test [7].
With `O=C(C1CCOCC1)N1CC[C@@H]2[C@H](CO)Nc3ccc(Br)cc3[C@@H]21`, the AC50 in test [2] is 4.43 µM (active).
With `CCOC(=O)c1cnc(SSc2ncc(C(=O)OCC)c(N)n2)nc1N`, in [11], the IC50 was 14.5 µM (active).
With `CCS(=O)(=O)c1ccc2c(c1)NC(=O)C(C)(C(=O)O)O2` (centres undefined), the EC50 in test [1] is > 100 µM (inactive).
Consider `O=C(Nc1cccc(-c2nc3ncccc3o2)c1)c1sc2ccccc2c1Cl`, for which the AC50 on Cytochrome P450 2C19 is 0.355 µM (inconclusive); on Cytochrome P450 3A4, 3.98 µM (inconclusive); at Cytochrome P450 2C9 it was 2 µM (inconclusive). In test [12], the IC50 is 3.81 µM (active).
